Assay results as given in patent publication US9061003B2, “Therapeutic or preventive agent for diabetes” (NITTA GELATIN INC., priority 2011, dated 2015).
Like-named read-outs stand apart in the source and are kept apart here. Square brackets hold non-standard residues; d marks the D form. Peptide text beside a SMILES is read from it. Hyp = O=C(O)[C@@H]1C[C@@H](O)CN1

Assays:
[1] = target: T1, DPPIV enzyme; human recombinant (Homo sapiens, UniProt P27487); test: DPPIV inhibitory activity (DPPIV Drug Discovery Kit-AK-499, H-Gly-Pro-AMC substrate); assay type: biochemical; conditions: for DPPIV inhibitory activity (in words): discussion of results; for IC50 (concentration at which 50% of DPPIV activity was inhibited): peptides, human recombinant DPPIV
T1 construct: purchased BIOMOL E434-9090 (kit AK-499)
Procedure: DPPIV inhibitory activity was determined by using a DPPIV inhibitory activity measuring kit “DPPIV Drug Discovery Kit-AK-499” (manufactured by BIOMOL). […] Inhibitory activity was evaluated by the concentration at which 50% of DPPIV activity was inhibited.

[2] = tested on: Human-derived intestinal tract L cells (NCI-H716 cell); assay type: cell-based; conditions: for GLP-1 secretion accelerating activity (in words): discussion of results; for GLP-1 secretion accelerating percentage: peptides, 5 mM sample, 1 hour, NCI-H716 cells, Blank = 100%, n = 4
Procedure: Human-derived intestinal tract L cells (NCI-H716 cell: manufactured by ATCC) were inoculated at 5×10^5 cells/mL×200 μL (1×10^5 cells/well) in a RPIM medium containing 10% FBS (manufactured by ATCC) on a Pre-coated poly-L-lysin plate (96 wells plate) and cultured for 2 days. After confirming that the cells were adhered to the plate, the medium was replaced by a test medium (146 mM NaCl, 5 mM KCl, 1.5 mM CaCl2, 1 mM MgSO4, 20 mM HEPES, 5.6 mM glucose, 2 mg/mL BSA) and a sample was added at a final concentration of 5 mM. A culture supernatant after 1 hour was 30-fold diluted with PBS, and tested with GLP-1 ELISA kit (manufactured by Levis) according to the protocol.
Based on GLP-1 secretion in the case not added with the sample (Blank) as 100%, a GLP-1 secretion accelerating percentage in the fraction added with 5 mM sample was calculated.

[3] = Intestinal tract absorptivity (intragastric administration, portal vein perfusate, LC/MS/MS); assay type: in vivo, Wistar rats; conditions: rat, po
Procedure: Male Wistar rats (170 g) were fasted overnight before subjected to the experiment. As a test sample, 215 nmol/10 mL of each of the peptides was used, and intragastrically administered. As a test method, heart and portal vein of each rat were attached with a cannula to make one-directional perfusion. […] To a perfusion sample solution (5.0 mL) collected from the portal vein was added 0.5 mL of 30% sulfosalicylic acid and stirred vigorously, and left overnight in a refrigerator. This sample was centrifuged at 3000 rpm for 10 minutes, to remove protein. For the supernatant of centrifugation, an amount of hydroxyproline in 0.5 mL was colorimetrically quantified, and an amount of free-type Hyp was obtained. […] After concentrating and drying the resultant in an evaporator, and removing the hydrochloric acid, the solid was dissolved in 5 mL of distilled water, and several drops of a saturated lithium hydroxide solution was added thereto to adjust pH at 5 to 7, and the volume was fixed at 10 mL. […] The value obtained by subtracting the amount of free-type Hyp before hydrolysis from the total Hyp amount after hydrolysis is an amount of peptide-form Hyp. From this amount of peptide-form Hyp, a quantitative value of absorption of each peptide into rat portal vein perfusate in the test sample was first determined. The colorimetric quantification of the amount of hydroxyproline was conducted by a […] and Shill method, and was concretely conducted in the following manner. That is, 2 mL of 2-propanol was added to 2 mL of a sample solution and stirred thoroughly. Then, 0.5 mL of a chloramine T liquid being an oxidizing agent was added to the mixture, and left still for accurately 4 minutes, and then cooled on ice. Then, 5 mL of a p-dimethylaminobenzaldehyde solution was added to the mixture and stirred thoroughly, and then heated in a boiling water bath for accurately 2 minutes. Then, the reaction was immediately cooled on ice, and left still for 1 hour, and then colorimetrically quantified at a wavelength of 575 nm. […] Further, the p-dimethylaminobenzaldehyde solution (Erich solution) was prepared by dissolving 20 g of p-dimethylaminobenzaldehyde powder in 22 mL of concentrated hydrochloric acid under heating in boiling water, and immediately cooling the same in ice water, and adding 122 mL of 2-propanol and dissolving it under stirring. Next, peptides collected in the rat portal vein perfusate, namely the aforementioned intestinally absorbed peptides were identified and quantified by the following HPLC analysis and mass spectrometry (LC/MS/MS). Analysis of the peptide in the perfusate was conducted by reverse-phase HPLC analysis. As a HPLC device, an LCSS-905 system manufactured by JASCO Corporation, consisting of a liquid feeding pump, a degasser, an automatic sampler, a column open, a UV spectrophotometer, a printer, and a system controller was used. As a reverse-phase column, Nova Pak C18 (3.9×150 mm) was used. […] As a HPLC device, U980HPLC (manufactured by JASCO Corporation) attached with an ODS(C18) column (Mightysil RP-18, 2×250 mm, manufactured by Kanto Chemical Co., Ltd.) was used. As a mobile phase solvent, a 0.2% formic acid-containing acetonitrile-water system was used, and the concentration of acetonitrile was increased from 0% to 40% over 40 minutes by a linear gradient, and it was washed with 100% acetonitrile for 10 minutes. […] MS analysis was conducted by a MS/MS system using a Quattro LC mass spectrophotometer (Micromass, Manchester, UK) according to a four-channel Multiple Reaction Monitoring method. To be more specific, the elute from HPLC was monitored by m/z being [M+H]^+ and by m/z of its fragment ion species. At this time, [M+H]^+ m/z was monitored using 302.2>189.4 for LOG; 286.1>189.3 for POG; 187.1>70.3 for PA; 261.1>243.4 for EO, 245.1>132.3 for LO; 245.2>132.1 for IO; 318.1>225.4 for EOG; 276.1>189.4 for SOG; 219.1>132.2 for SO; and 260.1>189.4 for AOG.

[4] = male, Wistar, in vivo, 215 nmol/10 mL
[5] = male Wistar rats, 215 nmol/10 mL intragastrically, portal vein perfusate, read-out: Amount of peptide identified after absorption

T1 sequence (P27487 whole entry): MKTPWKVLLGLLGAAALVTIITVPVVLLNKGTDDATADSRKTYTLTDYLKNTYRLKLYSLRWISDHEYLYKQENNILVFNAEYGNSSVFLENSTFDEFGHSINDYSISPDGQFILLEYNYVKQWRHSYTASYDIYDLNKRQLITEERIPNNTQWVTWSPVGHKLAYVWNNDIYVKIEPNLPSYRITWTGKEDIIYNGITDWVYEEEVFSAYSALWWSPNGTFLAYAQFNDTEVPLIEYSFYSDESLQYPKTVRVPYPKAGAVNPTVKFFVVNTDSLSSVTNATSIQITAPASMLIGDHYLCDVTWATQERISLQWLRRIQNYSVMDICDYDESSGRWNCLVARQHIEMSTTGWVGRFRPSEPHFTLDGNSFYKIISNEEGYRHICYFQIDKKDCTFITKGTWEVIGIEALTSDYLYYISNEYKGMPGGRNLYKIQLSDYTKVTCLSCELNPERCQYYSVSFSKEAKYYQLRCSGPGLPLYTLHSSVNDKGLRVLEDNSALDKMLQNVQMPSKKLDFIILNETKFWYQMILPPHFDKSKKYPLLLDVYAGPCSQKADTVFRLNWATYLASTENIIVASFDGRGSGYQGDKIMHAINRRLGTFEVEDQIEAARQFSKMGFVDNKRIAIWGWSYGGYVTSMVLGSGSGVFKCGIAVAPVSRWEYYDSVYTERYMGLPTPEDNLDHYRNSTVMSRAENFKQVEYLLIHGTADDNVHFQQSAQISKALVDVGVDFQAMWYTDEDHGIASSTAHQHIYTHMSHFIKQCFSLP

Row | Molecule | DPPIV inhibitory activity (in words) [1] | GLP-1 secretion accelerating activity (in words) [2] | GLP-1 secretion accelerating percentage [2] [%] | IC50 (concentration at which 50% of DPPIV activity was inhibited) [1] [µM] | level at time molar [3, 4] [µM] | level at time molar [3, 5] [µM]
1 | Hyp-Gly [OG] | have DPPIV inhibitory activity | have GLP-1 secretion accelerating activity | 152 ± 22 |  |  | 
2 | Pro-Pro [PP] | have DPPIV inhibitory activity | have GLP-1 secretion accelerating activity | 167 ± 53 |  |  | 
3 | C[C@H](NC(=O)[C@@H]1CCCN1)C(=O)O [PA, Pro-Ala] (H-Pro-Ala-OH; N-terminus and C-terminus assumed) | high DPPIV inhibitory activity | have GLP-1 secretion accelerating activity | 133 ± 85 | 1000 | 152.6 ± 1.1 | 
4 | N[C@@H](CCC(=O)O)C(=O)N1C[C@H](O)C[C@H]1C(=O)O [EO, Glu-Hyp] (H-Glu-[Hyp]-OH; N-terminus and C-terminus assumed) | high DPPIV inhibitory activity | have GLP-1 secretion accelerating activity | 148 ± 66 | 1500 | 156 ± 1.3 | 
5 | CC(C)C[C@H](N)C(=O)N1C[C@H](O)C[C@H]1C(=O)NCC(=O)O [LOG, Leu-Hyp-Gly] (H-Leu-[Hyp]-Gly-OH; N-terminus and C-terminus assumed) | high DPPIV inhibitory activity | have GLP-1 secretion accelerating activity | 326 ± 17 | 280 |  | 116.1 ± 1
6 | Pro-Gly [PG] | have DPPIV inhibitory activity | have GLP-1 secretion accelerating activity | 168 ± 15 |  |  | 
7 | Pro-Hyp [PO] | have DPPIV inhibitory activity | have GLP-1 secretion accelerating activity | 154 ± 44 |  |  | 
8 | N[C@@H](CO)C(=O)N1C[C@H](O)C[C@H]1C(=O)O [SO, Ser-Hyp] (H-Ser-[Hyp]-OH; N-terminus and C-terminus assumed) | high DPPIV inhibitory activity | have GLP-1 secretion accelerating activity | 161 ± 37 | 3600 | 116.1 ± 0.9 | 
9 | CC[C@H](C)[C@H](N)C(=O)N1C[C@H](O)C[C@H]1C(=O)O [IO, Ile-Hyp] (H-Ile-[Hyp]-OH; N-terminus and C-terminus assumed) | high DPPIV inhibitory activity |  |  | 2900 | 163 ± 1.9 | 
10 | C[C@H](NC(=O)[C@@H]1CCCN1)C(=O)NCC(=O)O [PAG, reference compound] (H-Pro-Ala-Gly-OH; N-terminus and C-terminus assumed) |  |  |  | >10000 | 105 ± 1.3 | 
11 | CC(C)C[C@H](N)C(=O)N1C[C@H](O)C[C@H]1C(=O)O [LO, Leu-Hyp] (H-Leu-[Hyp]-OH; N-terminus and C-terminus assumed) | high DPPIV inhibitory activity |  |  | 1700 | 167.7 ± 0.9 | 
12 | N[C@@H](CCC(=O)O)C(=O)N1C[C@H](O)C[C@H]1C(=O)NCC(=O)O [EOG, Glu-Hyp-Gly] (H-Glu-[Hyp]-Gly-OH; N-terminus and C-terminus assumed) | high DPPIV inhibitory activity | have GLP-1 secretion accelerating activity | 307 ± 84 | 2900 | 110 ± 0.9 | 
13 | N[C@@H](CO)C(=O)N1C[C@H](O)C[C@H]1C(=O)NCC(=O)O [SOG, Ser-Hyp-Gly] (H-Ser-[Hyp]-Gly-OH; N-terminus and C-terminus assumed) | high DPPIV inhibitory activity |  |  | 3000 | 103.2 ± 1 | 
14 | O=C(O)CNC(=O)[C@@H]1C[C@@H](O)CN1C(=O)[C@@H]1CCCN1 [POG, Pro-Hyp-Gly] (H-Pro-[Hyp]-Gly-OH; N-terminus and C-terminus assumed) | high DPPIV inhibitory activity |  |  | 600 |  | 129 ± 1
15 | C[C@H](N)C(=O)N1C[C@H](O)C[C@H]1C(=O)O [AO, Ala-Hyp] (H-Ala-[Hyp]-OH; N-terminus and C-terminus assumed) |  |  | 262 ± 71 | >10000 | 71 ± 0.9 | 
16 | C[C@H](N)C(=O)N1C[C@H](O)C[C@H]1C(=O)NCC(=O)O [AOG, Ala-Hyp-Gly] (H-Ala-[Hyp]-Gly-OH; N-terminus and C-terminus assumed) | high DPPIV inhibitory activity | have GLP-1 secretion accelerating activity | 120 ± 5 | 6000 |  | 66.7 ± 1.3
17 | NCC(=O)N1CCC[C@H]1C(=O)N1C[C@H](O)C[C@H]1C(=O)O [GPO, Gly-Pro-Hyp] (H-Gly-Pro-[Hyp]-OH) |  |  | 278 ± 60 | >10000 |  | 2.2
